The experiment relates to Nakaseomyces glabratus. The experiment in a line: Antifungal activity against fluconazole-resistant Candida glabrata. The format is functional. Conditions: read-out: ED50 (the source's name).
`CC1[C@@H](CO)O[C@@H](O[C@H](CCCCCCCC(=O)CCCCCCCCCCCCCC[C@@H](O)[C@@H](C)N)[C@@H](N)CO)[C@H](O)[C@H]1O` (some centres undefined) [OCEANAPISIDE]: the EC50 was 40 µM.

On to `C[C@@H](N)[C@H](O)CCCCCCCC(=O)CCCCCCCCCCCCCC[C@@H](O[C@@H]1O[C@H](CO)[C@H](O)[C@H](O)[C@H]1O)[C@H](N)CO` [RHIZOCHALIN C], for which the EC50 was more than 150 µM.

For the molecule `C[C@@H](N)[C@H](O)CCCCCCCCC(=O)CCCCCCCCCCCCCC[C@@H](O[C@@H]1O[C@H](CO)[C@H](O)[C@H](O)[C@H]1O)[C@@H](C)N` [RHIZOCHALIN D], the EC50 is more than 150 µM.

Turning to `C[C@@H](N)[C@H](O)CCCCCCCC(=O)CCCCCCCCCCCCCC[C@@H](O[C@@H]1O[C@H](CO)[C@H](O)[C@H](O)[C@H]1O)[C@@H](C)N` [RHIZOCHALIN], the EC50 came out at 40 µM.

For the origin of these results see ChEMBL document CHEMBL1141445, “Rhizochalins C and D from the sponge Rhizochalina incrustata. A rare threo-sphingolipid and a facile method for determination of the carbonyl position in alpha,omega-bifunctionalized ketosphingolipids” (2007).
